Where two headings read alike, the source gives them in different places.
Legend:
[1] = test system: P. aeruginosa NCTC 10662 biofilm; assay: MBEC model (ASTM E2799), liquid formulas; assay type: cell-based; conditions: treated 24 hours
Description: (§1) The MBEC model (ASTM E2799) was used to assess the anti-biofilm efficacy of the liquid formulas. Biofilms were grown on polystyrene pegs in the MBEC model for either 24 or 48 hours before treatment. Using the liquid form of the EDTA complexes 24- and 48-hour biofilms were tested (Table 20).
(§2) 24- and 48-hour biofilms were formed using MBEC plate method and treated for 24 hours. Technical replicates n=3. Log reduction (LR) values show±standard error (SE) of LR value.

[2] = test system: E. faecalis ATCC 29212 biofilm; assay: MBEC model (ASTM E2799), liquid formulas; assay type: cell-based; conditions: treated 24 hours
Description: as §1, §2

[3] = test system: S. aureus ATCC 29213 biofilm; assay: MBEC model (ASTM E2799), liquid formulas; assay type: cell-based; conditions: treated 24 hours
Description: as §1, §2

[4] = test system: S. aureus MRSA BAA-43 biofilm; assay: MBEC model (ASTM E2799), liquid formulas; assay type: cell-based; conditions: treated 24 hours
Description: as §1, §2

[5] = test system: S. epidermidis ATCC 35984 biofilm; assay: MBEC model (ASTM E2799), liquid formulas; assay type: cell-based; conditions: treated 24 hours
Description: as §1, §2

P. aeruginosa biofilms [6] = conditions: 4%
Description: (§3) The Mean Log10 density of untreated controls was calculated (±standard deviation).

S. aureus biofilms [7] = conditions: 4%
Description: as §3

[8] = test system: P. aeruginosa 24-hour biofilm
Description: (§4) Minimum inhibitory concentration (MIC), minimum biocidal concentration (MBC) and minimum biofilm eradication (MBEC) were determined. Values represent a percentage of the stock antimicrobial solution (8%).

[9] = test system: S. aureus 24-hour biofilm
Description: as §4

[10] = Displacement of metals from EDTA complexes by physiological saline; assay type: physicochemical
Description: Adding saline to the suspension of Ag4(EDTA), the suspension quickly precipitated a solid (AgCl). The precipitate was filtered off, washed with deionized water 4 times; and then dried in a vacuum oven at 50° C. in a dark flask to avoid exposure to direct light.
The displacement experiment described above was repeated for compounds 1-4 to provide the percent of the displacement of silver, copper, zinc from the EDTA complexes by physiological saline.

cells [11] = assay: Direct cytotoxicity, Neutral Red Uptake assay
P. aeruginosa biofilms [12] = assay: CDC bioreactor biofilm LR/kill, EDTA compounds at 100 ppm silver; assay type: cell-based; conditions: 100 ppm of silver, exposed 24 hours
Description: (§5) Microbial cultures were exposed to compounds for 24 hours. Compounds were diluted according to 100 ppm of silver. Biofilms were formed using the CDC bioreactor. Samples were performed in triplicate.

S. aureus biofilms [13] = assay: as above; assay type: cell-based; conditions: 100 ppm of silver, exposed 24 hours
Description: as §5

cells [14] = assay: Indirect cytotoxicity, agar diffusion method
[15] = test system: S. aureus 24-hour CDC biofilms; assay: Colonies after exposure of 24-hour CDC biofilms to EDTA compounds; assay type: cell-based
[16] = test system: P. aeruginosa 24-hour CDC biofilms; assay: as above; assay type: cell-based
[17] = 24-Hour Biofilms, Treatment Time 1
[18] = 24-Hour Biofilms, Treatment Time 5
[19] = 24-Hour Biofilms, Treatment Time 15
[20] = 72-Hour Biofilms, Treatment Time 1
[21] = 72-Hour Biofilms, Treatment Time 5
[22] = 72-Hour Biofilms, Treatment Time 15

Silver
Kill % ([1]; 50 ppm, 24-Hour Biofilm): 100% | LR ([1]; 50 ppm, 24-Hour Biofilm): 7.44 | Kill % ([1]; 50 ppm, 48-Hour Biofilm): 100% | LR ([1]; 50 ppm, 48-Hour Biofilm): 8.44 | Kill % ([1]; 100 ppm, 24-Hour Biofilm): 100% | LR ([1]; 100 ppm, 24-Hour Biofilm): 7.44 | Kill % ([1]; 100 ppm, 48-Hour Biofilm): 100% | LR ([1]; 100 ppm, 48-Hour Biofilm): 8.44 | Kill % ([2]; 50 ppm, 24-Hour Biofilm): 100% | LR ([2]; 50 ppm, 24-Hour Biofilm): 6.35 | Kill % ([2]; 50 ppm, 48-Hour Biofilm): 100% | LR ([2]; 50 ppm, 48-Hour Biofilm): 6.40 | Kill % ([2]; 100 ppm, 24-Hour Biofilm): 100% | LR ([2]; 100 ppm, 24-Hour Biofilm): 6.35 | Kill % ([2]; 100 ppm, 48-Hour Biofilm): 100% | LR ([2]; 100 ppm, 48-Hour Biofilm): 6.40 | Kill % ([3]; 50 ppm, 24-Hour Biofilm): 100% | LR ([3]; 50 ppm, 24-Hour Biofilm): 6.44 | Kill % ([3]; 50 ppm, 48-Hour Biofilm): 100% | LR ([3]; 50 ppm, 48-Hour Biofilm): 6.50 | Kill % ([3]; 100 ppm, 24-Hour Biofilm): 100% | LR ([3]; 100 ppm, 24-Hour Biofilm): 6.44 | Kill % ([3]; 100 ppm, 48-Hour Biofilm): 100% | LR ([3]; 100 ppm, 48-Hour Biofilm): 6.50 | Kill % ([4]; 50 ppm, 24-Hour Biofilm): 100% | LR ([4]; 50 ppm, 24-Hour Biofilm): 5.40 | Kill % ([4]; 50 ppm, 48-Hour Biofilm): 100% | LR ([4]; 50 ppm, 48-Hour Biofilm): 6.43 | Kill % ([4]; 100 ppm, 24-Hour Biofilm): 100% | LR ([4]; 100 ppm, 24-Hour Biofilm): 5.40 | Kill % ([4]; 100 ppm, 48-Hour Biofilm): 100% | LR ([4]; 100 ppm, 48-Hour Biofilm): 6.43 | Kill % ([5]; 50 ppm, 24-Hour Biofilm): 100% | LR ([5]; 50 ppm, 24-Hour Biofilm): 6.09 | Kill % ([5]; 50 ppm, 48-Hour Biofilm): 100% | LR ([5]; 50 ppm, 48-Hour Biofilm): 6.41 | Kill % ([5]; 100 ppm, 24-Hour Biofilm): 100% | LR ([5]; 100 ppm, 24-Hour Biofilm): 6.09 | Kill % ([5]; 100 ppm, 48-Hour Biofilm): 100% | LR ([5]; 100 ppm, 48-Hour Biofilm): 6.41

O.O=C([O-])CN(CCN(CC(=O)[O-])CC(=O)[O-])CC(=O)[O-].[Na+].[Na+].[Na+].[Na+] [Tetrasodium EDTA, ethylenediaminetetraacetic acid tetrasodium salt hydrate]
Kill % (P. aeruginosa biofilms [6]; [17]): 83.018% | LR (P. aeruginosa biofilms [6]; [17]): 0.77 ± 0.08 | Kill % (P. aeruginosa biofilms [6]; [18]): 97.92% | LR (P. aeruginosa biofilms [6]; [18]): 1.68 ± 0.05 | Kill % (P. aeruginosa biofilms [6]; [19]): 99.51% | LR (P. aeruginosa biofilms [6]; [19]): 2.31 ± 0.10 | Kill % (P. aeruginosa biofilms [6]; [20]): 99.22% | LR (P. aeruginosa biofilms [6]; [20]): 2.10 ± 0.05 | Kill % (P. aeruginosa biofilms [6]; [21]): 99.56% | LR (P. aeruginosa biofilms [6]; [21]): 2.35 ± 0.02 | Kill % (P. aeruginosa biofilms [6]; [22]): 95.07% | LR (P. aeruginosa biofilms [6]; [22]): 1.31 ± 0.12 | Kill % (S. aureus biofilms [7]; [17]): 97.41% | LR (S. aureus biofilms [7]; [17]): 1.59 ± 1.56 | Kill % (S. aureus biofilms [7]; [18]): 59.90% | LR (S. aureus biofilms [7]; [18]): 0.40 ± 0.05 | Kill % (S. aureus biofilms [7]; [19]): 80.51% | LR (S. aureus biofilms [7]; [19]): 0.71 ± 0.11 | Kill % (S. aureus biofilms [7]; [20]): 54.09% | LR (S. aureus biofilms [7]; [20]): 0.34 ± 0.37 | Kill % (S. aureus biofilms [7]; [21]): 79.86% | LR (S. aureus biofilms [7]; [21]): 0.70 ± 0.05 | Kill % (S. aureus biofilms [7]; [22]): 80.25% | LR (S. aureus biofilms [7]; [22]): 0.70 ± 0.02 | MBC ([8]; 1 min): 50 percentage of the stock antimicrobial solution (8%) | MIC ([8]; 1 min): 25 percentage of the stock antimicrobial solution (8%) | MBC ([8]; 30 min): 50 percentage of the stock antimicrobial solution (8%) | MIC ([8]; 30 min): 12.5 percentage of the stock antimicrobial solution (8%) | MBC ([8]; 1 h): 25 percentage of the stock antimicrobial solution (8%) | MBEC ([8]; 1 h): 6.25 percentage of the stock antimicrobial solution (8%) | MIC ([8]; 1 h): 25 percentage of the stock antimicrobial solution (8%) | MBC ([8]; 24 h): 6.25 percentage of the stock antimicrobial solution (8%) | MBEC ([8]; 24 h): 6.25 percentage of the stock antimicrobial solution (8%) | MIC ([8]; 24 h): 6.25 percentage of the stock antimicrobial solution (8%) | MBC ([9]; 1 min): 50 percentage of the stock antimicrobial solution (8%) | MIC ([9]; 1 min): 25 percentage of the stock antimicrobial solution (8%) | MBC ([9]; 30 min): 50 percentage of the stock antimicrobial solution (8%) | MIC ([9]; 30 min): 12.5 percentage of the stock antimicrobial solution (8%) | MBC ([9]; 1 h): 25 percentage of the stock antimicrobial solution (8%) | MBEC ([9]; 1 h): 6.25 percentage of the stock antimicrobial solution (8%) | MIC ([9]; 1 h): 25 percentage of the stock antimicrobial solution (8%) | MBC ([9]; 24 h): 6.25 percentage of the stock antimicrobial solution (8%) | MBEC ([9]; 24 h): 6.25 percentage of the stock antimicrobial solution (8%) | MIC ([9]; 24 h): 6.25 percentage of the stock antimicrobial solution (8%) | Kill % ([1]; 4%, 24-Hour Biofilm): 99.9998% | LR ([1]; 4%, 24-Hour Biofilm, hydrate): 5.94±3.43 | LR ([1]; 4%, 24-Hour Biofilm, listed as tEDTA, hydrate): 5.94 ± 3.43 | Kill % ([1]; 4%, 48-Hour Biofilm): 99.9999% | LR ([1]; 4%, 48-Hour Biofilm, hydrate): 6.99±4.04 | LR ([1]; 4%, 48-Hour Biofilm, listed as tEDTA, hydrate): 6.99 ± 4.04 | Kill % ([2]; 4%, 24-Hour Biofilm): 100% | LR ([2]; 4%, 24-Hour Biofilm): 6.35 | Kill % ([2]; 4%, 48-Hour Biofilm): 100% | LR ([2]; 4%, 48-Hour Biofilm): 6.40 | Kill % ([3]; 4%, 24-Hour Biofilm): 100% | LR ([3]; 4%, 24-Hour Biofilm): 6.44 | Kill % ([3]; 4%, 48-Hour Biofilm): 100% | LR ([3]; 4%, 48-Hour Biofilm): 6.50 | Kill % ([4]; 4%, 24-Hour Biofilm): 100% | LR ([4]; 4%, 24-Hour Biofilm): 5.40 | Kill % ([4]; 4%, 48-Hour Biofilm): 100% | LR ([4]; 4%, 48-Hour Biofilm): 6.43 | Kill % ([5]; 4%, 24-Hour Biofilm): 100% | LR ([5]; 4%, 24-Hour Biofilm): 6.09 | Kill % ([5]; 4%, 48-Hour Biofilm): 100% | LR ([5]; 4%, 48-Hour Biofilm): 6.41

O=C([O-])CN(CCN(CC(=O)[O-])CC(=O)[O-])CC(=O)[O-].[Ag+].[Cu+2].[Na+] [Compound 1, AgCuNaEDTA]
Displacement (%) Copper [10]: 53.49 ± 5.56% | Displacement (%) Silver [10]: 81.37 ± 4.29% | Interpretation (cells [11]; 25 ppm): Cytotoxic (if the percentage viability is less than 70% of the untreated control, then the substance is considered cytotoxic) | Percentage of Control/Percentage Viability (%) (cells [11]; 25 ppm): 51.54 ± 9.44% | Interpretation (cells [11]; 50 ppm): Cytotoxic (if the percentage viability is less than 70% of the untreated control, then the substance is considered cytotoxic) | Percentage of Control/Percentage Viability (%) (cells [11]; 50 ppm): 53.66 ± 9.48% | Interpretation (cells [11]; 100 ppm): Cytotoxic (if the percentage viability is less than 70% of the untreated control, then the substance is considered cytotoxic) | Percentage of Control/Percentage Viability (%) (cells [11]; 100 ppm): 52.57 ± 8.97% | Kill % (P. aeruginosa biofilms [12]): 99.99% | LR (P. aeruginosa biofilms [12]): 3.88 ± 0.15 | LR (P. aeruginosa biofilms [12]; listed as Ag/Cu/NaEDTA): 3.5 | Kill % (S. aureus biofilms [13]): 100% | Lysis Index (cells [14]; 25 ppm): 1 | Zone Index (cells [14]; 25 ppm): 2 | Lysis Index (cells [14]; 50 ppm): 1 | Zone Index (cells [14]; 50 ppm): 3 | Lysis Index (cells [14]; 100 ppm): 1 | Zone Index (cells [14]; 100 ppm): 3

O=C([O-])CN(CCN(CC(=O)[O-])CC(=O)[O-])CC(=O)[O-].[Cu+2].[Na+].[Na+] [Cu—Na-EDTA, reference compound]
Number of colonies detected [15]: 0 Cfu/ml | Number of colonies detected [16]: 0 Cfu/ml

From patent US10874108B2, “Anti-microbial compositions” (5D HEALTH PROTECTION GROUP LTD, priority 2016, dated 2020)
